Data published in patent publication US12150920B2, “Topical pharmaceutical composition in the form of aqueous gel comprising at least amitriptyline” (AlgoTherapeutix, priority 2020, dated 2024).

Assay: Ex vivo percutaneous absorption of amitriptyline on human skin samples in a Frantz cell
Assay type: in vitro ADME
Details: topical application of compositions A and B
Procedure: Comparative ex vivo study of the percutaneous absorption of amitriptyline in a formulation A in the form of an aqueous gel (invention) and a formulation B in the form of cream (comparative). Each of compositions A and B was applied to distinct samples of human skin. For each composition, the experiment was repeated 3 times with 3 skin samples from 3 different donors, giving 9 samples. The skin samples are placed in a Frantz cell and heated to a surface temperature of 32° C.±1° C. Composition A or B is spread homogenously with a spatula onto each skin sample at a rate of 10 mg per cell, corresponding to 5 mg/cm^2 skin. The skin samples are rinsed 16 hours after application. Each skin sample was placed using tweezers onto absorbent paper (dermis side down). The stratum corneum was removed using adhesive strips. After the removal of the stratum corneum the sample was perforated. The epidermis is then separated from the dermis. Each of them is placed in separate vials. Different samples were then extracted.

SMILES: CN(C)CCC=C1c2ccccc2CCc2ccccc21 [amitriptyline]
- Systemic passage of amitriptyline: less than 0.10 % of the administered dose
